Data on six molecules can be found in US20230141603A1, “BENZODIAZEPINE DERIVATIVES AS GABA A GAMMA1 PAM” (Hoffmann-La Roche Inc., priority 2021, published 2023).

For the experiment, the target named is T1, h-GABAA α5β2γ1 (Homo sapiens, UniProt P31644+Q8N1C3).
T1 construct: expressed in transfected cells; host or cells: HEK293F cells (ThermoFisher R79007), membranes
T1 sequence (P31644 32-462): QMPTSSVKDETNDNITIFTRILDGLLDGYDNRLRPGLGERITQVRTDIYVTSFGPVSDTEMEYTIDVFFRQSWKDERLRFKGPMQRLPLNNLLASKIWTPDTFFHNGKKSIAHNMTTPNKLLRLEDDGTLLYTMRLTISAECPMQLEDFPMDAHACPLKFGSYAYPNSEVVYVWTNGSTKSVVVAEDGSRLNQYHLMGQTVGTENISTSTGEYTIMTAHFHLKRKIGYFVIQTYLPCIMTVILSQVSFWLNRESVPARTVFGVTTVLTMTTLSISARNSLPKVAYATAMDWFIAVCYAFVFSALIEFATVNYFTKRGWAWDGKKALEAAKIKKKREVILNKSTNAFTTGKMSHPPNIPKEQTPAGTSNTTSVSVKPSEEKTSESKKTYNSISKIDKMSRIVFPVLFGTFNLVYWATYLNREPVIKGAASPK
T1 sequence (P47870 25-512 partner limits assumed): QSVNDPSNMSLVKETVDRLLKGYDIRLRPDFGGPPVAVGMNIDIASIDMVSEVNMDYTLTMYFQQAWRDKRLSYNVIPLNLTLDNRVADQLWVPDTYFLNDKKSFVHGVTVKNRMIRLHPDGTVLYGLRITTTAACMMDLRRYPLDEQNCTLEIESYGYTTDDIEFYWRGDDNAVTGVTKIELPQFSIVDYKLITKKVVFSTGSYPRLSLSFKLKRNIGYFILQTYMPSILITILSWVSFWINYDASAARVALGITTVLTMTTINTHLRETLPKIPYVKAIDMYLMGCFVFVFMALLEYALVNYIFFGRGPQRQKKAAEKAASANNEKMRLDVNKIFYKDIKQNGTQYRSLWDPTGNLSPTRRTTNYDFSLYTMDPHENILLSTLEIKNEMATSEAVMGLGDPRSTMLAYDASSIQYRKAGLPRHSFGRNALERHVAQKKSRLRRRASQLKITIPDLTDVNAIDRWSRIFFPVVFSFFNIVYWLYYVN
T1 sequence (Q8N1C3 36-465): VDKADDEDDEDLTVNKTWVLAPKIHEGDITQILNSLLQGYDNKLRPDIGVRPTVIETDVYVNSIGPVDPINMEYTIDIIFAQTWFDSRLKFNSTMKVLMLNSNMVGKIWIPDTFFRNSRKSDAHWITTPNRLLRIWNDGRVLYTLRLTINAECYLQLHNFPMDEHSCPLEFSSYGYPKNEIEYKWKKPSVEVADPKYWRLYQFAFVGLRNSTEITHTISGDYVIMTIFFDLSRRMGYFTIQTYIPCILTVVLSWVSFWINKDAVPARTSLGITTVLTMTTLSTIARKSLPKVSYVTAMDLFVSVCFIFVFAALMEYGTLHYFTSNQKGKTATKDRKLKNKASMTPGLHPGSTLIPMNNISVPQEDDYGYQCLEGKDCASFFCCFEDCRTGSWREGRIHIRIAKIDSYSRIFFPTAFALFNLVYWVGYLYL
In words: Radioligand binding assay, [3H]RO7239181 competition, HEK293F membranes. The procedure, abridged:
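Competition for [3H]RO7239181 (1.5 nM) binding to membranes from HEK293F cells transiently expressing human α5β2γ1 receptors. Compounds tested at 0.3–10000 nM; nonspecific binding defined with 10 μM RO7235136. Incubation 1 h at 4 °C in 10 mM KPi/100 mM KCl, pH 7.4; filtration, scintillation counting; Ki as mean of two determinations.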
As usually defined, the Ki is the equilibrium dissociation constant of an inhibitor or competing ligand from its target. Higher therefore signals lower affinity. As to `Fc1cccc(F)c1C1=NCc2nnc(-c3cccnn3)n2-c2ccc(Br)c(Br)c21` [Example 42, 7,8-dibromo-6-(2,6-difluorophenyl)-1-pyridazin-3-yl-4H-[1,2,4]triazolo[4,3-a][1,4]benzodiazepine], the Ki was found to be 0.9 nM. `Fc1cccc(F)c1C1=NCc2nncn2-c2ccc(Cl)c(Cl)c21` [Example 15, 7,8-dichloro-6-(2,6-difluorophenyl)-4H-[1,2,4]triazolo[4,3-a][1,4]benzodiazepine] gave a Ki of 0.9 nM.

With `Cc1nnc2n1-c1ccc(Br)c(Cl)c1C(c1c(F)cccc1F)=NC2` [Example 1, 8-bromo-7-chloro-6-(2,6-difluorophenyl)-1-methyl-4H-[1,2,4]triazolo[4,3-a][1,4]benzodiazepine], the Ki came out at 1.1 nM.

Turning to `Clc1cccnc1C1=NCc2nnc(-c3ccncn3)n2-c2ccc(Br)c(Cl)c21` [Example 44, 8-bromo-7-chloro-6-(3-chloro-2-pyridyl)-1-pyrimidin-4-yl-4H-[1,2,4]triazolo[4,3-a][1,4]benzodiazepine], the Ki turned out to be 1.4 nM.

`Fc1cccc(F)c1C1=NCc2nncn2-c2ccc(I)c(Cl)c21` [Example 34, 7-chloro-6-(2,6-difluorophenyl)-8-iodo-4H-[1,2,4]triazolo[4,3-a][1,4]benzodiazepine]: the Ki came to 0.3 nM.

In turn, `Fc1ccccc1C1=NCc2nnc(-c3cccnn3)n2-c2ccc(Cl)c(Cl)c21` [Example 10, 7,8-dichloro-6-(2-fluorophenyl)-1-pyridazin-3-yl-4H-[1,2,4]triazolo[4,3-a][1,4]benzodiazepine] displayed a Ki of 1.4 nM.
